In patent US20220235014A1, “PROCESS FOR THE PREPARATION OF HIGHLY PURE ERLOTINIB HYDROCHLORIDE” (SHIVALIK RASAYAN LIMITED, priority 2021, published 2022):
Where two headings read alike, the source gives them in different places.

[1] = 1M storage, table does not say which condition (30° C./65% or 40° C./75% RH)
[2] = 2M storage, table does not say which condition (30° C./65% or 40° C./75% RH)
[3] = 3M storage, table does not say which condition (30° C./65% or 40° C./75% RH)
[4] = 6M storage, table does not say which condition (30° C./65% or 40° C./75% RH)
[5] = 9M storage, table does not say which condition (30° C./65% or 40° C./75% RH)

Assay (by HPLC; on anhydrous basis) [1]: 99.19% w/w
Moisture Content (by KF method) [1]: 0.24% w/w
Assay (by HPLC; on anhydrous basis) [2]: 101.56% w/w
Moisture Content (by KF method) [2]: 0.26% w/w
Assay (by HPLC; on anhydrous basis) [3]: 101.41% w/w
Moisture Content (by KF method) [3]: 0.21% w/w
Assay (by HPLC; on anhydrous basis) [4]: 99.99% w/w
Moisture Content (by KF method) [4]: 0.17% w/w
Assay (by HPLC; on anhydrous basis) [5]: 100.40% w/w
Moisture Content (by KF method) [5]: 0.42% w/w
HPLC purity after 9 months stability (9 months): exceeding 99.8 % w/w by HPLC
Assay (by HPLC; on anhydrous basis) (Initial, limit >99.8%): 100.84% w/w
Moisture Content (by KF method) (Initial, limit not more than 0.5% w/w): 0.17% w/w
time over which the crystalline form was stable under storage (storage at 30° C./65±5%): up to 12 months
time over which the crystalline form was stable under storage (storage at 40° C./75±5%): up to 12 months
SMILES: C#Cc1cccc(Nc2ncnc3cc(OCCOC)c(OCCOC)cc23)c1.Cl [Form SEA, N-(3-ethynylphenyl)-6,7-bis (2-methoxy ethoxy)-4-quinazolinamine hydrochloride]
